Data published in PubChem BioAssay (NCI).
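Values below derive from 48-hour exposures of cells grown in 96-well plates, with endpoints linearly interpolated between the two concentrations bracketing the appropriate inhibition level. Abbreviation: GI50, concentration required for 50% inhibition of growth. At the TGI there is no net growth.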

Assays:
Assay in all cases: NCI anticancer screen, dose series, 48 h
HCT-15 colon = test system: HCT-15 colon
NCI-H23 lung = test system: NCI-H23 lung
786-0 renal = test system: 786-0 renal
PC-3 prostate = test system: PC-3 prostate
SW-620 colon = test system: SW-620 colon
TK-10 renal = test system: TK-10 renal
OVCAR-8 ovarian = test system: OVCAR-8 ovarian
UACC-62 melanoma = test system: UACC-62 melanoma
MOLT-4 leukemia = test system: MOLT-4 leukemia
MDA-MB-435 = test system: MDA-MB-435
SK-MEL-28 melanoma = test system: SK-MEL-28 melanoma
M14 melanoma = test system: M14 melanoma
MALME-3M melanoma = test system: MALME-3M melanoma
CAKI-1 renal = test system: CAKI-1 renal
LOX IMVI melanoma = test system: LOX IMVI melanoma
KM12 colon = test system: KM12 colon
MCF7 breast = test system: MCF7 breast
SNB-19 CNS = test system: SNB-19 CNS
SF-539 CNS = test system: SF-539 CNS
DU-145 prostate = test system: DU-145 prostate
IGROV1 ovarian = test system: IGROV1 ovarian
EKVX NSCLC = test system: EKVX NSCLC
NCI-H522 lung = test system: NCI-H522 lung
UO-31 renal = test system: UO-31 renal
SK-MEL-2 melanoma = test system: SK-MEL-2 melanoma
HCT-116 colon = test system: HCT-116 colon
HCC-2998 colon = test system: HCC-2998 colon
BT-549 breast = test system: BT-549 breast
HOP-92 NSCLC = test system: HOP-92 NSCLC
OVCAR-5 ovarian = test system: OVCAR-5 ovarian
HT29 colon = test system: HT29 colon
CCRF-CEM leukemia = test system: CCRF-CEM leukemia
ACHN renal = test system: ACHN renal
OVCAR-4 ovarian = test system: OVCAR-4 ovarian
SF-295 CNS = test system: SF-295 CNS
SK-MEL-5 melanoma = test system: SK-MEL-5 melanoma
K-562 leukemia = test system: K-562 leukemia
SR leukemia = test system: SR leukemia
NCI-H226 lung = test system: NCI-H226 lung
NCI-H460 lung = test system: NCI-H460 lung
A498 renal = test system: A498 renal
SK-OV-3 ovarian = test system: SK-OV-3 ovarian
SNB-75 CNS = test system: SNB-75 CNS
SF-268 CNS = test system: SF-268 CNS
RXF 393 renal = test system: RXF 393 renal
NCI/ADR-RES ovarian = test system: NCI/ADR-RES ovarian
HL-60(TB) leukemia = test system: HL-60(TB) leukemia
UACC-257 melanoma = test system: UACC-257 melanoma
COLO 205 colon = test system: COLO 205 colon
MDA-MB-231 breast = test system: MDA-MB-231 breast
A549 NSCLC = test system: A549 NSCLC
HOP-62 NSCLC = test system: HOP-62 NSCLC
U251 CNS = test system: U251 CNS
SN12C renal = test system: SN12C renal
RPMI-8226 leukemia = test system: RPMI-8226 leukemia
HS 578T breast = test system: HS 578T breast

SMILES: CCN1C(=O)N(CC)C2SC(N/N=C/C=C/c3ccccc3OC)=NC21 (stereo unspecified)
- GI50 (HCT-15 colon): 428 nM
- TGI (HCT-15 colon): > 100000 nM
- GI50 (NCI-H23 lung): 614 nM
- TGI (NCI-H23 lung): > 100000 nM
- GI50 (786-0 renal): 758 nM
- TGI (786-0 renal): 18900 nM
- GI50 (PC-3 prostate): 474 nM
- TGI (PC-3 prostate): > 72500 nM
- GI50 (SW-620 colon): 383 nM
- TGI (SW-620 colon): > 100000 nM
- GI50 (TK-10 renal): 19400 nM
- TGI (TK-10 renal): > 96600 nM
- GI50 (OVCAR-8 ovarian): 588 nM
- TGI (OVCAR-8 ovarian): 7140 nM
- GI50 (UACC-62 melanoma): 405 nM
- TGI (UACC-62 melanoma): > 100000 nM
- GI50 (MOLT-4 leukemia): 652 nM
- TGI (MOLT-4 leukemia): > 100000 nM
- GI50 (MDA-MB-435): 224 nM
- TGI (MDA-MB-435): 560 nM
- GI50 (SK-MEL-28 melanoma): 1510 nM
- TGI (SK-MEL-28 melanoma): > 100000 nM
- GI50 (M14 melanoma): 313 nM
- TGI (M14 melanoma): 3230 nM
- GI50 (MALME-3M melanoma): 504 nM
- TGI (MALME-3M melanoma): > 100000 nM
- GI50 (CAKI-1 renal): 567 nM
- TGI (CAKI-1 renal): > 100000 nM
- GI50 (LOX IMVI melanoma): 569 nM
- TGI (LOX IMVI melanoma): 26900 nM
- GI50 (KM12 colon): 431 nM
- TGI (KM12 colon): > 46300 nM
- GI50 (MCF7 breast): 427 nM
- TGI (MCF7 breast): > 100000 nM
- GI50 (SNB-19 CNS): 538 nM
- TGI (SNB-19 CNS): > 100000 nM
- GI50 (SF-539 CNS): 305 nM
- TGI (SF-539 CNS): 2940 nM
- GI50 (DU-145 prostate): 704 nM
- TGI (DU-145 prostate): > 100000 nM
- GI50 (IGROV1 ovarian): 668 nM
- TGI (IGROV1 ovarian): > 100000 nM
- GI50 (EKVX NSCLC): 1120 nM
- TGI (EKVX NSCLC): > 100000 nM
- GI50 (NCI-H522 lung): 236 nM
- TGI (NCI-H522 lung): 703 nM
- GI50 (UO-31 renal): 730 nM
- TGI (UO-31 renal): > 100000 nM
- GI50 (SK-MEL-2 melanoma): 672 nM
- TGI (SK-MEL-2 melanoma): 18100 nM
- GI50 (HCT-116 colon): 419 nM
- TGI (HCT-116 colon): > 100000 nM
- GI50 (HCC-2998 colon): 853 nM
- TGI (HCC-2998 colon): 13600 nM
- GI50 (BT-549 breast): 353 nM
- TGI (BT-549 breast): 1410 nM
- GI50 (HOP-92 NSCLC): 266 nM
- TGI (HOP-92 NSCLC): 4300 nM
- GI50 (OVCAR-5 ovarian): 1300 nM
- TGI (OVCAR-5 ovarian): > 100000 nM
- GI50 (HT29 colon): 346 nM
- TGI (HT29 colon): 3820 nM
- GI50 (CCRF-CEM leukemia): 386 nM
- TGI (CCRF-CEM leukemia): > 100000 nM
- GI50 (ACHN renal): 744 nM
- TGI (ACHN renal): > 100000 nM
- GI50 (OVCAR-4 ovarian): 20300 nM
- TGI (OVCAR-4 ovarian): > 100000 nM
- GI50 (SF-295 CNS): 371 nM
- TGI (SF-295 CNS): > 55100 nM
- GI50 (SK-MEL-5 melanoma): 525 nM
- TGI (SK-MEL-5 melanoma): 9170 nM
- GI50 (K-562 leukemia): 400 nM
- TGI (K-562 leukemia): > 100000 nM
- GI50 (SR leukemia): 351 nM
- TGI (SR leukemia): > 100000 nM
- GI50 (NCI-H226 lung): 562 nM
- TGI (NCI-H226 lung): > 100000 nM
- GI50 (NCI-H460 lung): 379 nM
- TGI (NCI-H460 lung): 13100 nM
- GI50 (A498 renal): 188 nM
- TGI (A498 renal): 636 nM
- GI50 (SK-OV-3 ovarian): 528 nM
- TGI (SK-OV-3 ovarian): > 100000 nM
- GI50 (SNB-75 CNS): 265 nM
- TGI (SNB-75 CNS): > 100000 nM
- GI50 (SF-268 CNS): 2510 nM
- TGI (SF-268 CNS): > 100000 nM
- GI50 (RXF 393 renal): 350 nM
- TGI (RXF 393 renal): 8900 nM
- GI50 (NCI/ADR-RES ovarian): 495 nM
- TGI (NCI/ADR-RES ovarian): > 100000 nM
- GI50 (HL-60(TB) leukemia): 299 nM
- GI50 (UACC-257 melanoma): 838 nM
- TGI (UACC-257 melanoma): > 100000 nM
- GI50 (COLO 205 colon): 308 nM
- TGI (COLO 205 colon): 951 nM
- GI50 (MDA-MB-231 breast): 1500 nM
- TGI (MDA-MB-231 breast): 38600 nM
- GI50 (A549 NSCLC): 750 nM
- TGI (A549 NSCLC): > 100000 nM
- GI50 (HOP-62 NSCLC): 535 nM
- TGI (HOP-62 NSCLC): > 100000 nM
- GI50 (U251 CNS): 400 nM
- TGI (U251 CNS): 16900 nM
- GI50 (SN12C renal): 991 nM
- TGI (SN12C renal): > 76600 nM
- GI50 (RPMI-8226 leukemia): 398 nM
- TGI (RPMI-8226 leukemia): 18200 nM
- GI50 (HS 578T breast): 321 nM
- TGI (HS 578T breast): > 100000 nM
